Experimental data reported in patent US20240277637A1, “CAPSAICIN DERIVATIVES IN THE TREATMENT OF IDIOPATHIC PULMONARY FIBROSIS” (aXichem AB, priority 2021, published 2024).
“Also recorded” adds a separate entry of the source.

Key:
[1] = system: human bronchial epithelial cells; assay: Clonogenic cell survival assay, bronchial epithelial cells with PDGF-AB (Example 4); assay type: cell-based; settings: 10 ng/ml PDGF-AB, 14 days; for effect on clonogenic survival / PDGF inhibition (words): 0-10 μM
Method: (§1) Primary isolated human bronchial epithelial cells (NHBE) were used in this assay sourced from the American Tissue Culture Collection (Normal, Human (ATCC® BEAS-2B™)) and were cultured up to passage 6. […].
The effects of Phenylcapsaicin (2) on clonogenic survival of bronchial epithelial cells, by plating the cells with increasing numbers (102 to 5×104) in 25 cm^2 flasks were investigated. SU9518* and Phenylcapsaicin were used as positive controls. The cells were incubated with 0-10 μM (3% DMSO aqueous) of Phenylcapsaicin, SU9518, and compounds 8-12 separately in the presence of 10 ng/ml PDGF-AB (Sigma Aldrich). The flasks were returned to the incubator for 14 days, after which they were stained with crystal violet (Sigma Aldrich). The colonies were counted and the surviving percentage was determined for clonogenic survival after correcting for plating efficiency. The synthetic analogs were all calculated at 100% purity for molar concentrations.

[2] = system: human bronchial epithelial cells; assay: Clonogenic cell survival assay, bronchial epithelial cells with PDGF-AB (Example 3); assay type: cell-based; settings: 10 ng/ml PDGF-AB, 14 days; for effect on clonogenic survival / PDGF inhibition (words): 0-10 μM
Method: as §1
A clonogenic cell survival assay determines the ability of a cell to proliferate indefinitely. Cells were plated with increasing numbers (102 to 5×10^4) in 25 cm^2 flasks. SU9518, SU9518, a known inhibitor PDGF that has shown the ability to reduce radiation-induced fibroblast and endothelial cell activation, and phenylcapsaicin were used as positive controls. The cells were incubated with 0-10 μM (3% DMSO aqueous) of phenylcapsaicin, SU9518, and compounds 1 and 3-7 separately in the presence of 10 ng/ml PDGF-AB (Sigma Aldrich). The flasks were returned to the incubator for 14 days, after which they were stained with crystal violet (Sigma Aldrich). The colonies were counted and the surviving percentage was determined for clonogenic survival after correcting for plating efficiency.

SMILES	effect on clonogenic survival / PDGF inhibition (words) [2]	Clonogenic Survival Assay (percent) ([2]; 0.10 μM)	Clonogenic Survival Assay (percent) ([2]; 0.50 μM)	Clonogenic Survival Assay (percent) ([2]; 1.00 μM)	Clonogenic Survival Assay (percent) ([2]; 2.00 μM)	Clonogenic Survival Assay (percent) ([2]; 5.00 μM)	Clonogenic Survival Assay (percent) ([2]; 10.00 μM)	other results
COc1cc(CNC(=O)CCCCC#Cc2cccc3ccccc23)ccc1O [Compound 12, N-[(4-Hydroxy-3-methoxyphenyl)methyl]-7-(1-naphthyl)-6-heptynamide]								Clonogenic Survival Assay (percent) ([1]; 0.10 uM): 81%; Clonogenic Survival Assay (percent) ([1]; 0.50 uM): 79%; Clonogenic Survival Assay (percent) ([1]; 1.00 uM): 61%; Clonogenic Survival Assay (percent) ([1]; 2.00 uM): 53%; Clonogenic Survival Assay (percent) ([1]; 5.00 uM): 48%; Clonogenic Survival Assay (percent) ([1]; 10.00 uM): 32%
COc1cc(CNC(=O)CCCCC#CC2CCCCC2)ccc1OC(C)=O [Compound 6]	some modest activity	89%	82%	76%	64%	69%	61%	effect on clonogenic survival / PDGF inhibition (words) ([2]; listed as compound 6): gave better results than compound 3
COc1cc(CNC(=O)CCCCC#Cc2ccccc2)ccc1OC(C)=O [Compound 5, 2-Methoxy-4-[(6-phenyl-5-hexynylcarbonylamino)methyl]phenyl acetate]	greater PDGF inhibition than both the parent PheCap (2) and the positive control SU9518; also recorded: significant improvement in PDGF inhibiting activity	78%	60%	45%	32%	30%	20%	effect on clonogenic survival / PDGF inhibition (words) ([2]; listed as compound 5): significant improvement in PDGF inhibiting activity; Clonogenic Survival Assay (percent) ([2]; 10.00 μM, listed as compound 5): 20%
COc1ccc(C#CCCCCC(=O)NCc2ccc(O)c(OC)c2)cc1 [Compound 11, N-[(4-Hydroxy-3-methoxyphenyl)methyl]-7-(p-methoxyphenyl)-6-heptynamide]								effect on clonogenic survival / PDGF inhibition (words) [1]: higher reduction than the lead phenylcapsaicin; effect on clonogenic survival / PDGF inhibition (words) ([1]; listed as compound 11): further improved; Clonogenic Survival Assay (percent) ([1]; 0.10 uM): 72%; Clonogenic Survival Assay (percent) ([1]; 0.50 uM): 57%; Clonogenic Survival Assay (percent) ([1]; 1.00 uM): 51%; Clonogenic Survival Assay (percent) ([1]; 2.00 uM): 33%; Clonogenic Survival Assay (percent) ([1]; 5.00 uM): 28%; Clonogenic Survival Assay (percent) ([1]; 10.00 uM): 21%
COc1cc(CNC(=O)CCCCC#CC(C)(C)C)ccc1OC(C)=O [Compound 7]	did not show any PDGF inhibition	99%	96%	96%	91%	94%	93%	effect on clonogenic survival / PDGF inhibition (words) ([2]; listed as compound 7): could not mediate the negative effects of the tert-butyl group
COc1cc(CNC(=O)CCCCC#CC2CCCCC2)ccc1O [Compound 3]	some modest activity	91%	83%	77%	74%	71%	73%	effect on clonogenic survival / PDGF inhibition (words) ([2]; listed as compound 3): PDGF inhibition activity dropped significantly; Clonogenic Survival Assay (percent) ([2]; 10.00 μM, listed as compound 3): 73%
COc1cc(CNC(=O)CCCCC#CC(C)(C)C)ccc1O [Compound 4]	did not show any PDGF inhibition	97%	95%	97%	96%	91%	91%	effect on clonogenic survival / PDGF inhibition (words) ([2]; listed as compound 4): completely eliminated the PDGF inhibiting activity; Clonogenic Survival Assay (percent) ([2]; 10.00 μM, listed as compound 4): 91%
